Patent US9186321B2 (SUDA LIMITED, priority 2011, dated 2015)
Structures can show the parent of a compound that is named as a salt.

Test: Overall tolerability in the relative bioavailability study
Type: in vivo, human
Settings: doses of 10 mg, 20 mg, 30 mg and single oral dose of 25 mg (1×25 mg tablet); healthy adult subjects under fed conditions
Method: Assessments include evaluation of changes in orthostatic hypotension, oral irritation, vital sign assessments, 12-lead electrocardiogram (ECG), and clinical assessments.
After dosing, the following activities were completed: • Both objective and subjective oral irritation assessments were performed immediately after dosing and at one hour after dose administration. • A fast was maintained until at least four hours after dosing. During the study confinement period, fluid consumption resumed no sooner than one hour after dose administration. […] Day 2 • Blood sample collections were obtained as per the profile. • Supine and standing blood pressure and heart rate was measured at approximately 24 hours after each dose. • All subjects were evaluated for the presence of any adverse events prior to release from the study site. • Prior to release, subjects were evaluated to ensure it was safe for them to be released from the study site. • Subjects were released from the study site at approximately 24 hours after dose administration. […]

## CCCc1nn(C)c2c(=O)[nH]c(-c3cc(S(=O)(=O)N4CCN(C)CC4)ccc3OCC)nc12 [sildenafil citrate]
  tolerability: well tolerated
